Like-named read-outs stand apart in the source and are kept apart here.
Tests used:
[1] = molecular target: T1, HCV NS5B RdRp genotype 1b (Hepatitis C virus genotype 1b, UniProt Q9WMX2); assay: HCV NS5B RdRp enzyme assay (standard / modified); assay type: biochemical
T1 construct: The protein was expressed with an 18 amino acid C-terminal truncation to enhance the solubility; made in house; host or cells: E. coli BL21(DE3), pET21a vector
Procedure: HCV NS5B RdRp Cloning, Expression, and Purification.
The cDNA encoding the NS5B protein of HCV, genotype 1b, was cloned into the pET21a expression vector. The protein was expressed with an 18 amino acid C-terminal truncation to enhance the solubility. The E. coli competent cell line BL21(DE3) was used for expression of the protein. Cultures were grown at 37° C. for ˜4 hours until the cultures reached an optical density of 2.0 at 600 nm. The cultures were cooled to 20° C. and induced with 1 mM IPTG. Fresh ampicillin was added to a final concentration of 50 μg/ml and the cells were grown overnight at 20° C.
The lysis buffer consisted of 20 mM Tris-HCl, pH 7.4, 500 mM NaCl, 0.5% triton X-100, 1 mM DTT, 1 mM EDTA, 20% glycerol, 0.5 mg/ml lysozyme, 10 mM MgCl2, 15 ug/ml deoxyribonuclease I, and Complete TM protease inhibitor tablets (Roche). After addition of the lysis buffer, frozen cell pellets were resuspended using a tissue homogenizer. To reduce the viscosity of the sample, aliquots of the lysate were sonicated on ice using a microtip attached to a Branson sonicator. The sonicated lysate was centrifuged at 100,000×g for 1 hr at 4° C. and filtered through a 0.2 μm filter unit (Corning).
The protein was purified using two sequential chromatography steps: Heparin sepharose CL-6B and polyU sepharose 4B (Pharmacia). The chromatography buffers were identical to the lysis buffer but contained no lysozyme, deoxyribonuclease I, MgCl2 or protease inhibitor and the NaCl concentration of the buffer was adjusted according to the requirements for charging the protein onto the column. Each column was eluted with a NaCl gradient which varied in length from 5-50 column volumes depending on the column type. […] The enzyme was aliquoted and stored at −80° C.
Standard HCV NS5B RdRp Enzyme Assay.
HCV RdRp genotype 1b assays were run in a final volume of 60 μl in 96 well plates (Corning 3600). The assay buffer is composed of 20 mM Hepes, pH 7.5, 2.5 mM KCl, 2.5 mM MgCl2, 1 mM DTT, 1.6 U RNAse inhibitor (Promega N2515), 0.01 mg/ml BSA (Sigma B6917), and 2% glycerol. All compounds were serially diluted (3-fold) in DMSO and diluted further in water such that the final concentration of DMSO in the assay was 2%. HCV RdRp genotype 1b enzyme was used at a final concentration of 28 nM. A polyA template was used at 6 nM, and a biotinylated oligo-dT12 primer was used at 180 nM final concentration. Template was obtained commercially (Amersham 27-4110). Biotinylated primer was prepared by Sigma Genosys. 3H-UTP was used at 0.6 μCi (0.29 μM total UTP). Reactions were initiated by the addition of enzyme, incubated at 30° C. for 60 min, and stopped by adding 25 μl of 50 mM EDTA containing SPA beads (4 μg/μl, Amersham RPNQ 0007). Plates were read on a Packard Top Count NXT after >1 hr incubation at room temperature.
Modified HCV NS5B RdRp Enzyme Assay.
A modified enzyme assay was performed essentially as described for the standard enzyme assay except for the following: The biotinylated oligo dT12 primer was precaptured on streptavidin-coated SPA beads by mixing primer and beads in assay buffer and incubating at room temperature for one hour. Unbound primer was removed after centrifugation. The primer-bound beads were resuspended in 20 mM Hepes buffer, pH 7.5 and used in the assay at final concentrations of 20 nM primer and 0.67 μg/μl beads. Order of addition in the assay: enzyme (1.75 nM) was added to diluted compound followed by the addition of a mixture of template (0.36 nM), 3H-UTP (0.6 μCi, 0.29 μM), and primer-bound beads, to initiate the reaction; concentrations given are final. Reactions were allowed to proceed for 4 hours at 30° C.
IC50 values for compounds were determined using seven different [I].

[2] = tested on: HCV replicon cells; assay: HCV replicon FRET / luciferase assay; assay type: cell-based, Hepatitis C virus
Procedure: The HCV FRET screening assay was performed in 96-well cell culture plates. The FRET peptide (Anaspec, Inc.) (Taliani et al., Anal. Biochem. 1996, 240, 60-67) contains a fluorescence donor, EDANS, near one end of the peptide and an acceptor, DABCYL, near the other end. The fluorescence of the peptide is quenched by […] resonance energy transfer (RET) between the donor and the acceptor, but as the NS3 protease cleaves the peptide the products are released from RET quenching and the fluorescence of the donor becomes apparent. The assay reagent was made as follows: 5× cell Luciferase cell culture lysis reagent from Promega (#E153A) diluted to 1× with dH2O, NaCl added to 150 mM final, the FRET peptide diluted to 20 μM final from a 2 mM stock.
To prepare plates, HCV replicon cells, with or without a Renilla luciferase reporter gene, were trypsinized and plated in a 96-well plate with titrated test compounds added in columns 3 through 12; columns 1 and 2 contained a control compound (HCV control inhibitor), and the bottom row contained cells with DMSO only. The plates were then placed in a CO2 incubator at 37° C.
Subsequent to addition of the test compounds described above (FRET Assay Preparation), at various times the plate was removed and Alamar blue solution (Trek Diagnostics, #00-100) was added to measure cellular toxicity. After reading in a Cytoflour 4000 instrument (PE Biosystems), plates were rinsed with PBS and then used for FRET assay by the addition of 30 ul of the FRET peptide assay reagent described above (FRET Assay Preparation) per well. The plate was then placed into the Cytoflour 4000 instrument which had been set to 340 excite/490 emission, automatic mode for up to 20 cycles and the plate read in a kinetic mode. Typically, the signal to noise using an endpoint analysis after the reads was at least three-fold. Alternatively, after Alamar blue reading, plates were rinsed with PBS, then used for luciferase assay using the Promega Dual-Glo Luciferase Assay System or the Promega EnduRen Live Cell Substrate assay.
Compound analysis was performed by quantification of the relative HCV replicon inhibition and the relative cytotoxicity values. To calculate cytoxicity values, the average Alamar Blue fluorescence signals from the control wells were set as 100% non-toxic. The individual signals in each of the compound test wells were then divided by the average control signal and multiplied by 100% to determine […]. To calculate the HCV replicon inhibition values, an average background value was obtained from the two wells containing the highest amount of HCV control inhibitor at the end of the assay period. These numbers were similar to those obtained from naïve Huh-7 cells. The background numbers were then subtracted from the average signal obtained from the control wells and this number was used as 100% activity. The individual signals in each of the compound test wells were then divided by the averaged control values after background subtraction and multiplied by 100% to determine percent activity. […] The two numbers generated for the compound plate, percent cytoxicity and percent activity, were used to determine compounds of interest for further analysis.

[3] = HCV NS5B RdRp genotype 1b enzyme
[4] = HCV replicon cells, FRET or luciferase activity

T1 sequence (Q9WMX2 2420-2992): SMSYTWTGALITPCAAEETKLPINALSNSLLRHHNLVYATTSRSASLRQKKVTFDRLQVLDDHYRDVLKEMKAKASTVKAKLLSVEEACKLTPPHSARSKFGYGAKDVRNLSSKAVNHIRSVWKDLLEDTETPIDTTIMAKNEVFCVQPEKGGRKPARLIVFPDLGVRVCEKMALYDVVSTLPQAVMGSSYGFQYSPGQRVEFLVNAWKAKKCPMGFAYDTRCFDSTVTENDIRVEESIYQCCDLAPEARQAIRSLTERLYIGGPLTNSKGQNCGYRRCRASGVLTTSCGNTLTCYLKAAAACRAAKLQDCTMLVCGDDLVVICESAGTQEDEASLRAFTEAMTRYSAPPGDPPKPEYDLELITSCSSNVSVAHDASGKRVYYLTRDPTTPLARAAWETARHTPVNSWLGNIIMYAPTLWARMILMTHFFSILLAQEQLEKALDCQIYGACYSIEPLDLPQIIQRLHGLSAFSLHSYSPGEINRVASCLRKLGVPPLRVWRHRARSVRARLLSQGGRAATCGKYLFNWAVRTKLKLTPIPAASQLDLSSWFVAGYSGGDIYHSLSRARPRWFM

Structure (SMILES) | IC50 [1] | EC50 ([2]; Hepatitis C virus) | other results
COc1ccc2c(c1)C1CC1(C(=O)N1C3CCC1CN(C)C3)Cn1c-2c(C2CCCCC2)c2ccc(C(=O)NS(=O)(=O)C(F)(F)F)cc21 (centres unmarked) | 1 to 500 nM | 1 to 500 nM | 
COc1ccc2c(c1)C1CC1(C(=O)N1C3CCC1CN(C)C3)Cn1c-2c(C2CCCCC2)c2ccc(C(=O)NS(=O)(=O)N(C)C)cc21 (centres unmarked) [drawing 24] |  |  | IC50 ([1]; HCV NS5B RdRp genotype 1b enzyme, read-out: IC50): 1 to 500 nM; EC50 ([2]; HCV replicon cells, FRET or luciferase activity, read-out: EC50): 1 to 500 nM
CN1CC2CCC(C1)N2C(=O)C12CC1c1cc(OC(F)F)ccc1-c1c(C3CCCCC3)c3ccc(C(=O)NS(=O)(=O)N(C)C)cc3n1C2 (centres unmarked) [drawing 90] | 1 to 500 nM | 1 to 500 nM | 
CCS(=O)(=O)NC(=O)c1ccc2c(C3CCCCC3)c3n(c2c1)CC1(C(=O)N2C4CCC2CN(C)C4)CC1c1cc(OC)ccc1-3 (centres unmarked) [drawing 104] |  |  | IC50 [1, 3]: 1 to 500 nM; EC50 [2, 4]: 1 to 500 nM
COc1ccc2c(c1)C1CC1(C(=O)N1C3CCC1CN(C(=O)OCc1ccccc1)C3)Cn1c-2c(C2CCCCC2)c2ccc(C(=O)NS(=O)(=O)N(C)C)cc21 (centres unmarked) | 1 to 500 nM | 1 to 500 nM | 
CN1CC2CCC(C1)N2C(=O)C12CC1c1c(OC(F)(F)F)cccc1-c1c(C3CCCCC3)c3ccc(C(=O)O)cc3n1C2 (centres unmarked) | 1 to 500 nM | 1 to 500 nM | 
CN1CC2CCC(C1)N2C(=O)C12CC1c1cc(OC(F)F)ccc1-c1c(C3CCCCC3)c3ccc(C(=O)NS(=O)(=O)N(C)C)cc3n1C2 (centres unmarked) [drawing 103] |  |  | IC50 [1, 3]: 1 to 500 nM; EC50 [2, 4]: 1 to 500 nM
COc1ccc2c(c1)C1CC1(C(=O)N1C3CCC1CN(C)C3)Cn1c-2c(C2CCCCC2)c2ccc(C(=O)NS(N)(=O)=O)cc21 (centres unmarked) [drawing 38] | 1 to 500 nM | 1 to 500 nM | 
COc1ccc2c(c1)C1CC1(C(=O)N1[C@@H]3CC[C@H]1CN(C(=O)OCc1ccccc1)C3)Cn1c-2c(C2CCCCC2)c2ccc(C(=O)NS(=O)(=O)N(C)C)cc21 (some centres unmarked) | 1 to 500 nM | 1 to 500 nM | 
COc1ccc2c(c1)C1CC1(C(=O)N1C3CCC1CN(Cc1ccccc1)C3)Cn1c-2c(C2CCCCC2)c2ccc(C(=O)NS(=O)(=O)N(C)C)cc21 (centres unmarked) [drawing 33] | 1 to 500 nM | 1 to 500 nM | 
CCN(CC)S(=O)(=O)NC(=O)c1ccc2c(C3CCCCC3)c3n(c2c1)CC1(C(=O)N2C4CCC2CN(C)C4)CC1c1cc(OC)ccc1-3 (centres unmarked) [drawing 110] |  |  | IC50 [1, 3]: 1 to 500 nM; EC50 [2, 4]: 1 to 500 nM
COc1ccc2c(c1)C1CC1(C(=O)N1C3CCC1CN(C)C3)Cn1c-2c(C2CCCCC2)c2ccc(C(=O)NS(=O)(=O)CC(F)F)cc21 (centres unmarked) | 1 to 500 nM | 1 to 500 nM | 
COc1ccc2c(c1)C1CC1(C(=O)N1C3CCC1CN(C)C3)Cn1c-2c(C2CCCCC2)c2ccc(C(=O)NS(=O)(=O)C3CCCCC3)cc21 (centres unmarked) | 1 to 500 nM | 1 to 500 nM | 

Source: patent US20130171098A1, “Cyclopropyl Fused Indolobenzazepine HCV NS5B Inhibitors” (priority 2006, published 2013)
